Literature values as cited in patent publication US20250073301A1, “Delayed Release Compositions of Linaclotide” (Ironwood Pharmaceuticals, Inc., priority 2013, published 2025).
Ends that are not written are not given here.

Conditions: human volunteers, oral linaclotide

Question: For “CCEYCCNPACTGCY (cysteine pairing not given here) [linaclotide]”, which “oral dose found in feces” value is on record?
Answer: The value was “about 5%”.
